# Data taken from US8858952B2, “Methods and materials for generating T cells” (Mayo Foundation for Medical Education and Research, priority 2009, dated 2014).
# Where no end group is shown, it is not given here. [ ]: non-standard residue; d: D form. Ava = NCCCCC(=O)O
# System: FR74-specific T cells
# Assay: IFN-γ ELIspot of T cell cultures generated ex vivo with polypeptide-pulsed DC
# Assay type: cell-based, FVB/N mice
# Description: FIG. 4 is a graph plotting the results an IFN-γ ELIspot analyses of T cell cultures incubated with the indicated polypeptides. Epitope nesting greatly augments the numbers of antigen-specific T cells. T cells were tested in ELIspot against native FR74 polypeptide at various concentrations. Each data point is the mean of 3 determinations.
# FIG. 6. FR74-specific T cells generated with modified polypeptides recognized tumor lysates. […] Each bar is the mean (±s.e.m.) of 3 replicates.
# FIG. 7. […] The T cells were generated at varying concentrations of polypeptides (x-axis). Each point is the mean (±s.e.m.) of 3 replicates.
# In terms of proliferation, only the dual modified polypeptide was able to generate T cells that were able to proliferate at 10^−9 g/mL (FIG. 5).
# In order to determine whether furin cleavage is required, two methods are used: furin insensitive linkers and furin inhibitors. Blockade of enhanced ex vivo expansion mediated by the DC3 peptide using these two methods is powerful evidence, outside of a furin knockout mouse, that furin is required for the actions of DC3. Although it has already been shown that DC3 must be linked to antigen, as a control T cells are expanded using free FR74 mixed with free DC3. To test the role of furin with furin-insensitive linkers, RARR (SEQ ID NO:4) is replaced with VRVV (SEQ ID NO:41) with the polypeptides FR74.1, FR74.3, and FR74.8 as shown in FIG. 17. In parallel with these cultures, cultures are included in which inhibitors are included. The stoichiometric peptidyl inhibitor decanoyl-Arg-Val-Lys-Arg-CH2CL (SEQ ID NO:42) and α1-antitrypsin Portland, which are the two most commonly used inhibitors, are employed. […] Cultures are examined over a range of concentrations of inhibitors and assayed as described with ELIspot and proliferation assays. To generate Th cells, CD4^+ T cells are purified by incubation of splenocytes with anti-CD4^+ MACS microbeads (Miltenyi, Auburn, Calif.) for 20 minutes at 4° C., followed by positive selection of CD4^+ T cells using an AutoMACS automatic magnetic cell sorter according to the manufacturer's specifications. Th cell lines are established with bone marrow derived DC at a concentration of 5×10^4 T cells/mL in 24-well tissue culture-treated plates in complete medium on day 0. To derive the dendritic cells (DCs), bone marrow is harvested from the long bones of FVB/N mice and seeded in 6-well plates (3×10^6/well) in complete media with murine GM-CSF (10 ng/mL) and IL-4 (1 ng/mL). Media and cytokines are replaced after 3 days. On day 5, CPG is added to the cultures at 1 μg/mL, and the cells are ready for T cell induction on day 6. The tissue culture-generated DC are pulsed with 10 μg/mL FR74 peptide or its modifications and 10 μg/mL B7DC-crosslinking antibody at 37° C. for 4 hours. In these experiments, constant mass is maintained. Next, the peptide-loaded DC are washed with media, and the CD4+ T cells are added, and on days 8 and 10, IL-2 (50 U/mL) is added. On day 15, cells are assayed. For the ELIspot analysis, anti-IFN-γ (Pharmingen) antibody is added to a 96-well nitrocellulose-backed plate (NC-plate, Millipore) at 50 μL/well at a concentration of 10 μg/mL in PBS and incubated overnight at 4° C. The day of analysis, the NC-plate is washed with PBS and blocked for 1-2 hours at 37° C. with PBS/2%BSA. After blocking, the plate are again washed. The Th cells are transferred to the antibody-coated plates. Syngeneic naïve CD4 T cells alone without peptide antigen are used as the negative control. Th cells are seeded at 5×10^4 cells/well with a range of native (i.e., FR74) peptide, irrelevant peptide, FRαMMC tumor lysate, irrelevant tumor lysate, media or concanavalin A. Irradiated syngeneic splenocytes are added at 1 ×10^5 cells/well as antigen-presenting cells. The plate is incubated at 37° C. for 24 hours. The plate are washed with PBS/0.05% Tween-20, and 100 μL/well biotinylated anti-IFN-γ(5 μg/mL, Pharmingen) antibody are added to each well. […]
substance,measurement,setting,value
FR74.4: dual conjugated polypeptide: FR74 nested between Ii-key and DC3 (Ac-LRMK[Ava]KDISYLYRFNWNHCGRARRFYPSYHSTPQRP),response of generated T cells to naturally processed antigen,"DC pulsed with FRα-expressing tumor cells, FIG. 6",retain the capability to respond to naturally processed antigen
same,lowest peptide concentration at which generated T cells respond,"IFN-γ ELIspot against native FR74, FIG. 4",10^−9 g/mL
same,ex vivo generation of FR74-specific T cells under equal molar amounts,"equal molarity, FIG. 7",superior ex vivo generation of FR74-specific T cells relative to the native polypeptide
same,generation of FR74-specific T cells,"within 12 days of culture, compared to controls, equal masses, FIG. 4",T cell reactivity greater than either modification alone
